The record followed here is ChEMBL document CHEMBL1201862, “PubChem BioAssay data set” (2004).

Structures are written as SMILES.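 These data come from cells grown in 96-well plates and exposed to compound for 48 hours at five concentrations. GI50: concentration for 50% inhibition of growth.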 Active and inactive are the calls of the source. No stated cut-off is given here; in the data, active = GI50 up to about 1.1 µM and inactive = higher.

Some test systems named below: MDA-N; KM12; A549; HL-60; U-251; COLO 205; HCC 2998; EKVX; SW-620; HOP-92; TK-10; DU-145; SNB-19; T47D; SNB-75; OVCAR-5; ACHN; Malme-3M; MDA-MB-435; HOP-62.
Holding throughout (assay): NCI tumour cell line growth inhibition, 48 h

For `CCOc1ccc(NC2=CC(=O)C(=O)c3ccccc32)cc1`, the GI50 with MDA-N is 2.05 µM (inactive); with KM12, 3.77 µM (inactive); with A549 it was 2.74 µM (inactive); in the experiment with HL-60, 0.459 µM (active); in the experiment with U-251 it was 3.85 µM (inactive); in the experiment on COLO 205, 3.64 µM (inactive). Moreover, the GI50 in the experiment on HCC 2998 is 13.1 µM (inactive); with EKVX, 16.4 µM (inactive); in the experiment with SW-620 it was 1.82 µM (inactive); in the experiment on HOP-92 it was 9.48 µM (inactive); in the experiment on TK-10, 8.32 µM (inactive); in the experiment on DU-145 it was 2.38 µM (inactive). The GI50 in the experiment with SNB-19 is 2.94 µM (inactive); in the experiment on T47D it was 8.79 µM (inactive); in the experiment with SNB-75, 2.35 µM (inactive); with OVCAR-5 it was 3.77 µM (inactive); with ACHN it was 2.28 µM (inactive); with Malme-3M, 2.08 µM (inactive). In addition, the GI50 in the experiment with MDA-MB-435 is 1.8 µM (inactive); with HOP-62 it was 3.88 µM (inactive).
For the compound `Cc1ccccc1NC(=S)N/N=C1\C(=O)Nc2ccccc21`, the GI50 with MDA-N, in the experiment with KM12, with A549, with HL-60, in the experiment with U-251 and with COLO 205 was > 100 µM (inactive) throughout. Further, the GI50 in the experiment with HCC 2998 is > 100 µM (inactive); with EKVX, > 100 µM (inactive); in the experiment with SW-620 it was > 100 µM (inactive); with HOP-92 it was > 100 µM (inactive); in the experiment with TK-10, > 100 µM (inactive); with DU-145 it was 31.4 µM (inactive). Also, the GI50 in the experiment with SNB-19, with T47D, in the experiment with SNB-75, in the experiment with OVCAR-5, in the experiment with ACHN and in the experiment with Malme-3M was > 100 µM (inactive) in each case. Further, the GI50 in the experiment with MDA-MB-435 and in the experiment with HOP-62 was > 100 µM (inactive) in each case.
As to `O=C(NNCc1ccco1)c1cc2ccccc2[nH]1`, the GI50 is > 100 µM (inactive) in the experiment on MDA-N; 65.8 µM (inactive) in the experiment on KM12; > 100 µM (inactive) in the experiment on A549; > 29.1 µM (inactive) in the experiment with HL-60; > 100 µM (inactive) in the experiment with COLO 205; > 36.9 µM (inactive) in the experiment with HCC 2998. Further, the GI50 with EKVX is 61.5 µM (inactive); with SW-620 it was > 100 µM (inactive); in the experiment on HOP-92, 48 µM (inactive); in the experiment with TK-10, > 58.1 µM (inactive); in the experiment on DU-145 it was > 100 µM (inactive); in the experiment on SNB-19 it was > 80.2 µM (inactive). For the same compound, the GI50 was 13.5 µM (inactive) in the experiment with T47D; 47.9 µM (inactive) in the experiment on SNB-75; > 100 µM (inactive) with OVCAR-5; > 54.7 µM (inactive) in the experiment with ACHN; > 100 µM (inactive) in the experiment with Malme-3M; > 85.5 µM (inactive) in the experiment on MDA-MB-435. Moreover, the GI50 in the experiment with HOP-62 is > 52.6 µM (inactive).
For the compound `O=C1c2[nH]c3ccccc3c2CCN2CCCCC12` (stereo not drawn), the GI50 in the experiment on MDA-N was 19.1 µM (inactive); with KM12, 17.7 µM (inactive); in the experiment with A549, 24.9 µM (inactive); in the experiment on HL-60, 1.8 µM (inactive); in the experiment on U-251, 18.8 µM (inactive); with COLO 205 it was 18.7 µM (inactive). Further, the GI50 with HCC 2998 is 17.2 µM (inactive); in the experiment with EKVX, 23.4 µM (inactive); with SW-620, 26.1 µM (inactive); in the experiment with HOP-92 it was 18.5 µM (inactive); with TK-10, 27 µM (inactive); in the experiment on DU-145 it was 36.4 µM (inactive). The GI50 is 24.9 µM (inactive) with SNB-19; 25.7 µM (inactive) with T47D; 28.5 µM (inactive) in the experiment on SNB-75; 21.6 µM (inactive) with OVCAR-5; 21.9 µM (inactive) in the experiment with ACHN; 25.6 µM (inactive) in the experiment with Malme-3M. For the same compound, the GI50 in the experiment with MDA-MB-435 is 16.7 µM (inactive); in the experiment on HOP-62, 29.3 µM (inactive).
As to `COc1ccc2c(c1)C(N)=C(c1ccccc1)C2=O`, the GI50 is > 100 µM (inactive) in the experiment with MDA-N; 36.6 µM (inactive) in the experiment with KM12; 64.6 µM (inactive) in the experiment with A549; > 100 µM (inactive) with HL-60; 94.4 µM (inactive) in the experiment on U-251; > 100 µM (inactive) in the experiment on COLO 205. Moreover, the GI50 with HCC 2998 was 81.8 µM (inactive); with EKVX, > 100 µM (inactive); with SW-620, > 100 µM (inactive); with HOP-92 it was > 100 µM (inactive); in the experiment with TK-10, > 100 µM (inactive); with DU-145 it was > 100 µM (inactive). Further, the GI50 is 24.4 µM (inactive) in the experiment on SNB-19; 32.5 µM (inactive) with T47D; 12.6 µM (inactive) with SNB-75; > 100 µM (inactive) in the experiment with OVCAR-5; 33.9 µM (inactive) in the experiment on ACHN; > 100 µM (inactive) in the experiment on Malme-3M. Further, the GI50 in the experiment on MDA-MB-435 and in the experiment on HOP-62 was > 100 µM (inactive) throughout.
On to `CCOC(=O)c1c(Br)c(-c2ccc([N+](=O)[O-])cc2)c(Br)n1C`, for which the GI50 in the experiment on MDA-N, with KM12, in the experiment on A549, with HL-60, with U-251 and in the experiment with COLO 205 was > 10 µM (inactive) each time. For the same compound, the GI50 with HCC 2998 was > 10 µM (inactive); with EKVX, 9.55 µM (inactive); in the experiment with HOP-92, 2.47 µM (inactive); in the experiment with TK-10 it was > 10 µM (inactive); in the experiment on DU-145, > 10 µM (inactive); in the experiment on SNB-19, > 10 µM (inactive). Moreover, the GI50 was > 10 µM (inactive) with T47D; 2.49 µM (inactive) in the experiment with SNB-75; > 10 µM (inactive) in the experiment on OVCAR-5; > 10 µM (inactive) with ACHN; > 10 µM (inactive) in the experiment with Malme-3M; > 10 µM (inactive) in the experiment on MDA-MB-435. The GI50 with HOP-62 was > 10 µM (inactive).
With `CC(C)OP(=O)(OC(C)C)/C(C#N)=C/c1ccco1`, the GI50 with MDA-N, in the experiment with KM12, with A549, with HL-60, in the experiment with U-251 and in the experiment on COLO 205 was > 100 µM (inactive) each time. Further, the GI50 in the experiment with HCC 2998, in the experiment on EKVX, in the experiment with SW-620, with HOP-92, in the experiment with TK-10 and in the experiment on DU-145 was > 100 µM (inactive) in each case. The GI50 with SNB-19, with T47D, in the experiment with SNB-75, with OVCAR-5, in the experiment with ACHN and in the experiment with Malme-3M was > 100 µM (inactive) in each case. Further, the GI50 in the experiment on MDA-MB-435 and in the experiment on HOP-62 was > 100 µM (inactive) throughout.
As to `O=[N+]([O-])c1ccc(Cl)c(/C=N/C23CC4CC(CC(C4)C2)C3)c1`, the GI50 was > 8.13 µM (inactive) in the experiment on MDA-N; > 9.48 µM (inactive) in the experiment with KM12; > 10 µM (inactive) with A549; 2.05 µM (inactive) in the experiment on HL-60; > 7.48 µM (inactive) in the experiment on U-251; > 10 µM (inactive) with COLO 205. Also, the GI50 in the experiment on HCC 2998, in the experiment on EKVX, with SW-620, in the experiment on HOP-92, with TK-10 and with DU-145 was > 10 µM (inactive) throughout. The GI50 in the experiment with SNB-19, in the experiment on T47D, with SNB-75, in the experiment with OVCAR-5, in the experiment on ACHN and in the experiment with Malme-3M was > 10 µM (inactive) each time. For the same compound, the GI50 is > 6.34 µM (inactive) with MDA-MB-435 and > 10 µM (inactive) in the experiment on HOP-62.
On to `COc1cc(C(=O)OC2CC34CCNC35CC(OC5(OC)C2O)c2cc3c(cc24)OCO3)ccc1O` (stereo not drawn), for which the GI50 in the experiment on MDA-N, with KM12, in the experiment on A549, in the experiment on HL-60, with U-251 and with COLO 205 was > 100 µM (inactive) in each case. In addition, the GI50 in the experiment on HCC 2998, in the experiment on EKVX, with SW-620, with HOP-92, in the experiment on TK-10 and in the experiment on DU-145 was > 100 µM (inactive) throughout. Also, the GI50 in the experiment with SNB-19 was > 100 µM (inactive); in the experiment on T47D, > 100 µM (inactive); with SNB-75, 46.8 µM (inactive); in the experiment with OVCAR-5, > 100 µM (inactive); in the experiment on ACHN, > 100 µM (inactive); with Malme-3M, 8.11 µM (inactive). Also, the GI50 in the experiment with MDA-MB-435 and with HOP-62 was > 100 µM (inactive) in each case.
Take `Nn1c(Cc2ccc(Cl)cc2)n[nH]c1=O`: the GI50 in the experiment on MDA-N, in the experiment with KM12, with A549, with HL-60, with U-251 and in the experiment with COLO 205 was > 100 µM (inactive) throughout. The GI50 in the experiment on HCC 2998, in the experiment on EKVX, in the experiment with SW-620, in the experiment on HOP-92, in the experiment on TK-10 and with DU-145 was > 100 µM (inactive) in each case. Besides, the GI50 in the experiment with SNB-19, in the experiment with T47D, in the experiment with SNB-75, in the experiment with OVCAR-5, in the experiment on ACHN and in the experiment on Malme-3M was > 100 µM (inactive) each time. Besides, the GI50 was > 100 µM (inactive) with MDA-MB-435 and 72.1 µM (inactive) with HOP-62.
